The values that follow are results of earlier work, collected in US20240065974A1, “ORAL THIN FILM” (LTS Lohmann Therapie-Systeme AG, priority 2021, published 2024).

For this series the following is noted: compared with (R)-ketamine.

As for `CNC1(c2ccccc2Cl)CCCCC1=O` (racemic) [(S)-ketamine, (S)-(±)-2-(2-chlorophenyl)-2-(methylamino)cyclohexan-1-one], the “Analgesic and anaesthetic potency relative to the (R) form” value is “approximately three times higher”.
